Patent publication US20230081679A1, “SURFACTANT VESICLES FOR VACCINE FORMULATION, TARGETED DRUG DELIVERY, AND TRANSFECTION” (University of Maryland, College Park, priority 2021, published 2023)
Where two headings read alike, the source gives them in different places. {BHQ2} = Black Hole Quencher 2; {FAM} = fluorescein

How the values were obtained:
[1] = Vesicle radius and PDI by DLS
Experimental: To measure the average size of the vesicles, 100 μL of the solution was taken and diluted to 1 mL with water and analyzed using dynamic light scattering (DLS).

[2] = for Second Order Rate Constant k’: 60:40 w/w SDBS:CTAT, 1% w/w total surfactant
Experimental: To assess the rate of encapsulated substrate release, dialysis was initially considered. […] The assay was to remove aliquots from SVs-encapsulated formulations at time intervals and re-purify the aliquot by size-exclusion chromatography (SEC). Vesicle fractions elute in the initial fractions while release carbohydrate is retained on the column and elutes in the later fractions. The quantity of carbohydrate released was determined by ^1H-NMR (FIG. 28).
Using the SEC method, the initial rate of glucose release was analyzed for vesicle encapsulated glucose solutions at varying concentrations. […] Therefore, a simple model with first-order release kinetics across the vesicle membrane (Eq. 1) was used, from which the rate law (Eq. 2) can be derived, where [Sugar]in and [Sugar]out are the sugar concentrations inside and outside the vesicle, respectively.
The release for each vesicle-encapsulated sugar preparation was monitored for at least two half-lives (monosaccharides) and at least one half-life (disaccharides and maltotriose). The release profile for each substrate was then fit to Eq. 3 by a least squares method, and the first order rate constant k1 was calculated. The reported uncertainties represent the standard deviation in the measured k1 of three separate batches of vesicle-encapsulated sugar.
The t1/2 was calculated from each k1, and the permeability coefficient (P) was calculated using k1 and the vesicle size (from DLS experiments) according to: […]

[3] = Encapsulation in catanionic SVs (gel filtration, then NMR or ICP-AES); format: physicochemical
Experimental: Vesicles were formed in the presence of several different sugars, purified by gel filtration, and the encapsulated sugar concentration measured by NMR (Table 3).
Table 6 summarizes the EE and drug concentration achieved with each of the chemotherapeutic agents under the standard SDBS-rich SVs formulation method.
The gel was flushed with two column-volumes of PBS 1×. Next, 1.0 mL of crude vesicle suspension was loaded onto the column and gravity fed into the gel. 2.0 mL of PBS 1× eluent was then added to the column and the fractions discarded. 1.5 mL of PBS 1× was then added to the column and the fractions collected to yield purified opaque light blue vesicles. The column was cleaned with 2.0 mL of 0.1% Triton X-100 in water followed by two column volumes of PBS 1×.

DNase I = DNase I Protection Assay; conditions: 25° C. or 37° C., intact vesicles
Experimental: FIG. 10. […] Vesicle-incorporated fluorescently-quenched 20 bp DNA duplexes were subjected to DNase I cleavage at 25° C. (A) or 37° C. (B) before (intact) and after (broken) freeze/thaw cycles to promote vesicle rupturing. […] Variation in overall fluorescent intensity in the ruptured samples reflect the variability in vesicle rupture and reformation during the freeze/thaw process.
DNase I Protection Assay: Intact DNA duplex loaded vesicles were added to reaction buffer containing 2.5 mM magnesium chloride, 0.5 mM calcium chloride, and 1× PBS. DNase I (Thermo Fisher Scientific, Waltham, Mass.) was added to a final concentration of 0.005 U/μL and the reaction was monitored by fluorescence (excitation at 494 nm, emission 521 nm) collected on SpectraMax M5 Microplate Reader (Molecular Devices, San Jose, Calif.) over 3 h at 25° C. or 37° C. Broken vesicles were prepared by 3 freeze thaw cycles of 10 min at −80° C. and 2 min at RT. Following the freeze thaw procedure, the samples equilibrated at RT for 30 min and were used in the assay as described above.

[4] = Encapsulation in catanionic SVs (gel filtration, then NMR or ICP-AES); format: physicochemical; conditions: empty SVs incubated in 4 mM D-maltose solution for three weeks
[5] = Drug pKa and solubility in buffer; format: physicochemical
[6] = saline at 37° C.; cited from earlier work
[7] = Conversion of carboplatin in PBS 1×; format: physicochemical; conditions: 40 mM in PBS 1×, 48 h, room temperature
[8] = drug release from catanionic SVs, PBS 1×
[9] = chemotherapeutic drugs in SDBS-rich SVs, PBS 1×
[10] = sugar vesicles, 500 mM sugar, PBS 1×, after 24 h
[11] = 25° C., PBS 1× pH 7.4, 60:40 w/w SDBS rich vesicles, 500 mM sugar
[12] = prepared in 500 mM sugar, PBS 1×
[13] = sugar vesicles, 250 mM cellobiose, PBS 1×, after 24 h
[14] = 250 mM cellobiose instead of 500 mM, PBS 1×
[15] = sugar vesicles, deionized water instead of PBS 1×, after 24 h
[16] = 500 mM sugar, deionized water instead of PBS 1×
[17] = sugar vesicles, 100 mM glucosamine, PBS 1×, after 24 h
[18] = 100 mM glucosamine instead of 500 mM, PBS 1×

Compound: N.N.[Cl][Pt][Cl] [Cisplatin, cisplatin]
- Vesicle PDI ([1]; drug-loaded catanionic SVs): 0.16
- Vesicle Radius (nm) ([1]; drug-loaded catanionic SVs): 76 nm
- First Order Rate Constant k [2, 8]: 0.78 ± 0.06 h⁻¹
- EE (%) [3, 9]: 2.1%
- [Drug], mM (in purified vesicles) [3, 9]: 0.05 ± 0.01 mM

Compound: O=C[C@H](O)[C@@H](O)[C@@H](O)[C@H](O)CO [D-galactose]
- Vesicle PDI [1, 10]: 0.20
- Vesicle Radius (nm) [1, 10]: 83 nm
- First Order Rate Constant k [2, 11]: 0.16 ± 0.02 h⁻¹
- EE (%) [3, 12]: 0.82%
- [Sugar], mM (in purified vesicles) [3, 12]: 2.7 ± 0.7 mM

Compound: OC[C@H]1O[C@@](CO)(O[C@H]2O[C@H](CO)[C@@H](O)[C@H](O)[C@H]2O)[C@@H](O)[C@@H]1O [D-sucrose]
- Vesicle PDI [1, 10]: 0.12
- Vesicle Radius (nm) [1, 10]: 82 nm
- Second Order Rate Constant k’ ([2]; 25° C., PBS 1×): 0.00186 ± 0.00011 M⁻¹ s⁻¹
- fold faster leakage than maltose ([2]; second order release from SVs): 5.6 fold
- EE (%) [3, 12]: 0.86%
- [Sugar], mM (in purified vesicles) [3, 12]: 3.2 ± 0.4 mM

Compound: O=S(=O)(O)N[C@H]1C(O)O[C@H](CO)[C@@H](O)[C@@H]1O (stereo partly drawn) [D-glucosamine-2-sulfate]
- Vesicle PDI [1, 10]: 0.06
- Vesicle Radius (nm) [1, 10]: 69 nm
- First Order Rate Constant k [2, 11]: 0.29 ± 0.06 h⁻¹
- EE (%) [3, 12]: 1.0%
- [Sugar], mM (in purified vesicles) [3, 12]: 3.3 ± 0.7 mM

Compound: OC[C@H]1O[C@@H](O[C@H]2[C@H](O)[C@@H](O)[C@H](O)O[C@@H]2CO)[C@H](O)[C@@H](O)[C@@H]1O [D-cellobiose]
- Vesicle PDI [1, 13]: 0.15
- Vesicle Radius (nm) [1, 13]: 90 nm
- Second Order Rate Constant k’ ([2]; 25° C., PBS 1×): 0.000722 ± 0.00014 M⁻¹ s⁻¹
- EE (%) [3, 14]: 1.2%
- [Sugar], mM (in purified vesicles) [3, 14]: 2.0 ± 0.4 mM

Compound: 20 bp DNA duplexes: fluorescently-quenched 20 bp DNA duplexes (SEQ ID NO:3 and 4), vesicle-incorporated (chain 1 ACCCTACGTATCGGTCAGTC; chain 2 GACTGACCGATACGTAGGGT; chain 1: DNA, 3' {FAM}, backbone and methylation of C not given here; chain 2: DNA, 5' {BHQ2}, backbone and methylation of C not given here)
- protection from DNase I cleavage, vesicle-incorporated (DNase I): protected from nuclease digestion

Compound: O=C[C@H](O)[C@@H](O)[C@H](O)[C@H](O)CO [D-glucose]
- Vesicle PDI [1, 10]: 0.17
- Vesicle Radius (nm) [1, 10]: 75 nm
- Vesicle PDI [1, 15]: 0.40
- Vesicle Radius (nm) [1, 15]: 178 nm
- First Order Rate Constant k [2, 11]: 0.12 ± 0.03 h⁻¹
- First Order Rate Constant k ([2]; 25° C., in water instead of PBS 1×, 500 mM sugar): 0.12 ± 0.05 h⁻¹
- slope of ln starting concentration vs ln initial release rate ([2]; vesicles prepared in 0.1, 0.2 and 0.5 M glucose): 1.1±0.2
- EE (%) [3, 16]: 0.67%
- [Sugar], mM (in purified vesicles) [3, 16]: 2 ± 1 mM
- EE (%) [3, 12]: 1.1%
- [Sugar], mM (in purified vesicles) [3, 12]: 3.7 ± 0.8 mM
- EE ([3]; vesicles prepared in 0.1 M glucose): 1.9%

Compound: O=C[C@H](O)[C@H](O)[C@H](O)CO [D-ribose]
- Vesicle PDI [1, 10]: 0.20
- Vesicle Radius (nm) [1, 10]: 72 nm
- EE (%) [3, 12]: 0.084%
- [Sugar], mM (in purified vesicles) [3, 12]: 0.28 ± 0.02 mM

Compound: OC[C@H]1O[C@H](O[C@H]2[C@H](O)[C@@H](O)[C@H](O)O[C@@H]2CO)[C@H](O)[C@@H](O)[C@@H]1O [D-maltose]
- Vesicle PDI [1, 10]: 0.13
- Vesicle Radius (nm) [1, 10]: 80 nm
- Second Order Rate Constant k’ ([2]; 25° C., PBS 1×): 0.000333 ± 8.3e-05 M⁻¹ s⁻¹
- Second Order Rate Constant k’ ([2]; 25° C., PBS 1×, listed as Maltose): 0.000333 ± 8.3e-05 M⁻¹ s⁻¹
- EE [4]: 5%
- maltose trapped by vesicles [4]: 0.2 mM
- EE (%) [3, 12]: 1.2%
- [Sugar], mM (in purified vesicles) [3, 12]: 4.1 ± 0.3 mM

Compound: Nc1nc2[nH]cc(CCc3ccc(C(=O)N[C@@H](CCC(=O)O)C(=O)O)cc3)c2c(=O)[nH]1 [Pemetrexed, pemetrexed]
- Vesicle PDI ([1]; drug-loaded catanionic SVs): 0.17
- Vesicle Radius (nm) ([1]; drug-loaded catanionic SVs): 73 nm
- Half-life t1/2 [2]: 47 ± 4 h
- First Order Rate Constant k [2, 8]: 0.015 ± 0.001 h⁻¹
- EE (%) [3, 9]: 0.80%
- [Drug], mM (in purified vesicles) [3, 9]: 0.45 ± 0.09 mM

Compound: COC1OC(CO)C(O)C(O)C1O [α-D-methylglucoside]
- Vesicle PDI [1, 10]: 0.19
- Vesicle Radius (nm) [1, 10]: 75 nm
- First Order Rate Constant k [2, 11]: 3.7 ± 0.5 h⁻¹
- EE (%) [3, 12]: 0.17%
- [Sugar], mM (in purified vesicles) [3, 12]: 0.6 ± 0.2 mM

Compound: N.N.O=C([O-])C1(C(=O)[O-])CCC1.[Pt+2] [Carboplatin, carboplatin]
- Vesicle PDI ([1]; drug-loaded catanionic SVs): 0.19
- Vesicle Radius (nm) ([1]; drug-loaded catanionic SVs): 74 nm
- solubility (concentration in buffer) [5]: 40 mM
- leaked out of the vesicles ([2]; at the 48 h mark): over 50%
- First Order Rate Constant k [2, 8]: 0.039 ± 0.004 h⁻¹
- fold slower release than cisplatin ([2]; release from SVs): 20 fold
- fold slower release than glucose ([2]; release from SVs): 3 fold
- kobs of ligand exchange [6]: 7.7e-07 s⁻¹
- t1/2 of ligand exchange [6]: ≈ 10 days
- converted to cisplatin [7]: 2%
- remained unreacted [7]: 93%
- EE (%) [3, 9]: 1.9%
- [Drug], mM (in purified vesicles) [3, 9]: 0.5 ± 0.1 mM

Compound: N[C@H]1C(O)O[C@H](CO)[C@@H](O)[C@@H]1O (stereo partly drawn) [D-glucosamine]
- Vesicle PDI [1, 17]: 0.23
- Vesicle Radius (nm) [1, 17]: 78 nm
- First Order Rate Constant k ([2]; 25° C., PBS 1× pH 7.4, 100 mM sugar concentration): 0.11 ± 0.01 h⁻¹
- EE (%) [3, 18]: 3.5%
- [Sugar], mM (in purified vesicles) [3, 18]: 2.3 ± 0.2 mM

Compound: O=C[C@@H](O)[C@@H](O)[C@H](O)[C@H](O)CO [D-mannose]
- Vesicle PDI [1, 10]: 0.18
- Vesicle Radius (nm) [1, 10]: 74 nm
- First Order Rate Constant k [2, 11]: 0.26 ± 0.06 h⁻¹
- EE (%) [3, 12]: 0.87%
- [Sugar], mM (in purified vesicles) [3, 12]: 2.9 ± 0.2 mM

Compound: maltotriose
- Vesicle PDI [1, 10]: 0.13
- Vesicle Radius (nm) [1, 10]: 95 nm
- Second Order Rate Constant k’ ([2]; 25° C., PBS 1×): 0.00211 ± 0.00022 M⁻¹ s⁻¹
- EE (%) [3, 12]: 0.65%
- [Sugar], mM (in purified vesicles) [3, 12]: 2.2 ± 0.2 mM
